Assay results reported in patent US5189065A, “Use of derivatives of 9,10-dihydrophenanthrene for the preparation of an anti-tumor medicament” (Roussel Uclaf, priority 1989, dated 1993).

Legend:
[1] = target: T1, Tyrosinekinase of the EGF (Epidermal Growth Factor) Receptor (Homo sapiens, UniProt P00533); experiment: Inhibition of tyrosinekinase of the EGF receptor (A431 cell membranes); assay type: biochemical; conditions: membranes of A431 cells; samples containing poly(Glu, Ala, Tyr 6:3:1) substrate and EGF; 15 minutes at 30° C.; read-out: IC50, concentration of substance which inhibits the enzyme activity by 50% (converted)
T1 construct: Membranes of A431 cells (ATCC CRL 1555) are used as the source of EGF receptors; endogenous in cells; host or cells: A431 cell membranes (ATCC CRL 1555)
T1 sequence (P00533 25-1210): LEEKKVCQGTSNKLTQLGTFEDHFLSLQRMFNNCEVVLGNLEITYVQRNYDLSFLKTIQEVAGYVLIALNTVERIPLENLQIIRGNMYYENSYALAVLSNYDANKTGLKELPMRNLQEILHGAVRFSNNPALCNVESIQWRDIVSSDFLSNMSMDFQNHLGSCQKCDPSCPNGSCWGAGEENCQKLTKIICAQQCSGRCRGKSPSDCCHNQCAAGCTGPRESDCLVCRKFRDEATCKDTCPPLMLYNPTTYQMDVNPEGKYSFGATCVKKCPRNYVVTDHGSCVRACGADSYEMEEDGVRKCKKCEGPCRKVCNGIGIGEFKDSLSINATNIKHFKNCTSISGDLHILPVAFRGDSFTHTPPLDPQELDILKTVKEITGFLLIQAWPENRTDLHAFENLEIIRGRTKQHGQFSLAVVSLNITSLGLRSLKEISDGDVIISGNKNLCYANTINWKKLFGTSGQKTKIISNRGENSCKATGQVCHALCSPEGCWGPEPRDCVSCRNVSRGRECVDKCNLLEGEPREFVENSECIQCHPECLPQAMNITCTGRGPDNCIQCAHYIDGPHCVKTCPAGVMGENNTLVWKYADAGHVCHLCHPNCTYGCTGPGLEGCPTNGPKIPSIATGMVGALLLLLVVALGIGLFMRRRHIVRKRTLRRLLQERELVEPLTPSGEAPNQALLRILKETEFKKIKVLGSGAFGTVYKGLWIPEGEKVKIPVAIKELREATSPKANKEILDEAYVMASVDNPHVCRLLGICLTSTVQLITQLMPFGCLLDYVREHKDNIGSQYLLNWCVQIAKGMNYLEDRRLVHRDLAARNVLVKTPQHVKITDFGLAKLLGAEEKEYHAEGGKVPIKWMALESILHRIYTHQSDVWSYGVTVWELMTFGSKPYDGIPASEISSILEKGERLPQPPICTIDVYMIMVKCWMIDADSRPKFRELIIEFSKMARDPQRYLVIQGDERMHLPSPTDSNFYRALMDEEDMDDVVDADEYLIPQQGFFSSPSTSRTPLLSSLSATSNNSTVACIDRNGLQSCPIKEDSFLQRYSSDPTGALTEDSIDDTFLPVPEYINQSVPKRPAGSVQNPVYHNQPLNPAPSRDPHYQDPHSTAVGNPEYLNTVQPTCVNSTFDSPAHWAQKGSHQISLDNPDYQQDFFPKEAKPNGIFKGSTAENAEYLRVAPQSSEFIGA
T1 sequence (P01133 971-1023 partner limits assumed): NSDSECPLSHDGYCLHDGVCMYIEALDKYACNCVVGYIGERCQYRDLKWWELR
Experimental: 1 - Measurement of the Inhibition of Tyrosinekinase of the EGF (Epidermal Growth Factor) Receptor
Membranes of A431 cells (ATCC CRL 1555) are used as the source of EGF receptors. This cellular lineage expresses a large number of EGF receptors at its surface which have a tyrosinekinase activity.
These cells are pre-incubated with or without EGF (1000 nM) for 15 minutes and are added to a corresponding HEPES buffer (N-2-hydroxyethyl-piperazine-N'-2-ethanesulphonic acid) (with or without EGP) and containing Mg^2+ (10 mM) and Mn^2+ (2 mM) ions, 0.2% of X-100 triton, sodium orthovanadate (20 micromoles) and the inhibitor.
Samples either containing or not containing the poly substrate (Glu, Ala, Tyr 6:3:1) are prepared. The reaction is initiated by the addition of [gamma P^32 ] ATP (32 micromoles). After incubation for 15 minutes at 30° C. the samples are precipitated using 10% […], followed by filtering on a millipore membrane and the incorporated P^32 is measured with a liquid scintillation counter.
The results are expressed in IC50, that is the concentration of substance which inhibits the enzyme activity by 50%, determined by a series of dilutions starting at 51 micrograms/ml in the samples containing the substrate and EGF.

[2] = tested on: catalytic sub-unit of the proteinkinase dependent on cyclic 3',5'-AMP; experiment: Inhibition of the proteinkinase dependent on cyclic 3',5'-AMP; assay type: biochemical; conditions: inhibitor 40 micrograms/ml; KEMPTID substrate; pH 6.9; 15 minutes at 30° C.
Experimental: 2 - Measurement of the Inhibition of the Proteinkinase Dependent on Cyclic 3',5'-AMP
The catalytic sub-unit of the proteinkinase dependent on cyclic 3',5'-AMP was reconstituted as indicated in SIGMA®. The enzyme activity was measured using KEMPTID® (SIGMA®) as substrate (KEMPTID - Leu-Arg-Arg-Ala-Ser-Leu-Gly).
The inhibitor is pre-incubated at pH 6.9 with the enzyme, the substrate (190 micromoles), Mg^+2 (5 mM), 0.25 mg/ml of BSA (Bovine Serum Albumin) and 3.75 mM of mercaptoethanol in 50 mM of 4-morpholinopropanesulphonic acid.
The reaction is initiated using gamma P^32 ATP (40 micromoles). After 15 minutes at 30° C. an aliquot is placed on an ion-exchange paper ([…]; WHATMAN®) plunged into phosphoric acid (75 mM), washed, dried and the incorporation of P^32 is measured using a liquid scintillation counter.
The results are expressed as a percentage of the enzyme activity inhibition at a concentration of inhibitor of 40 micrograms/ml.

SMILES	IC50 [1] [nM]	percentage of the enzyme activity inhibition [2] [%]
CN(C)C1Cc2ccc(O)c(O)c2-c2ccccc21 (stereo not shown) [Product A, 3,4-dihydroxy-9-dimethylamino-9,10-dihydrophenanthrene]	2350	19
Br.CNC1Cc2ccc(O)c(O)c2-c2ccccc21 (stereo not shown) [Example 3, 3,4-dihydroxy-9-methylamino-9,10-dihydrophenanthrene (hydrobromide)]	621	18
